Experimental data as given in patent US11883387B2, “PqsR inverse agonists” (HELMHOLTZ-ZENTRUM FÜR INFEKTIONSFORSCHUNG GMBH, priority 2018, dated 2024).

Experiments:
[1] = test system: P. aeruginosa pyocyanin production; test: Pyocyanin assay; format: cell-based, P. aeruginosa PA14; conditions: Pseudomonas aeruginosa, PA14, 16 h, read-out: IC50-value towards pyocyanin production, PA14 in PPGAS medium, 16 h
Method: Inhibition of P. aeruginosa pyocyanin production by compounds was determined photometrically as described before.[20] In short, an overnight culture of PA14 in PPGAS medium was washed, diluted in medium to a start OD600 of 0.02, and incubated for 16 h (37° C., 200 rpm, relative humidity 75%) in the presence of test compounds. Then, cultures were extracted with chloroform and re-extracted with 0.2 M HCl. Protonated red colored pyocyanin was determined by measuring OD520 and normalizing to OD600.

PqsR = PqsR (Pseudomonas aeruginosa, UniProt Q9I4X0); test: E. coli based β-galactosidase reporter gene assay (PqsR inverse agonistic activity); format: cell-based; design: expressed in transfected cells; host or cells: Escherichia coli DH5α
Chain of PqsR (Q9I4X0 whole entry): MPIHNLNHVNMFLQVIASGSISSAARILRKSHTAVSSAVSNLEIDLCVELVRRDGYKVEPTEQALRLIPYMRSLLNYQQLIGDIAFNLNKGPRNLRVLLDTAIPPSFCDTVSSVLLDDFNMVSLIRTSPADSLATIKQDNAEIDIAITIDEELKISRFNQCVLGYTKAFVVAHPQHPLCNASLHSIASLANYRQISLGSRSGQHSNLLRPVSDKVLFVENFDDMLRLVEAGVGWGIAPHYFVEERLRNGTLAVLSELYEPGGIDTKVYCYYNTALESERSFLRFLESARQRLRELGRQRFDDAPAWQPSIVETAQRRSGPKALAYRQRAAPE
Method in brief: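 E. coli DH5α carrying pEAL08-2 (tac-driven pqsR with pqsA-lacZ) was grown to OD600 0.2 and incubated with 0.001–10 μM compound plus 50 nM PQS for 2.5 h at 37 °C. β-Galactosidase activity was measured by ONPG conversion in permeabilized cells and normalized between the no-PQS and solvent controls. IC50 came from concentration variation.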

[2] = Kinetic Turbidimetric Aqueous Solubility at room temperature for 5 min; format: physicochemical; conditions: PBS buffer, kinetic from dmso stock, 2% DMSO
Method: Kinetic Turbidimetric Aqueous Solubility at room temperature for 5 min. Test compound was diluted in PBS buffer to give a range of concentrations (typically 0.4, 2, 4, 20, 40, 100, and 200 μM, final DMSO concentration 2%) and incubated at room temperature for 5 min. Absorbance was measured at a wavelength of 620 nm and the solubility was estimated from the concentration of test compound that produces an increase in absorbance above the vehicle control (i.e., […]). Data was analyzed by fitting a four parameter sigmoidal function to the measured and normalized absorbances and AUC calculation providing access to Log S (decadic logarithm of the solubility).

Structure (SMILES) | IC50 [1] [nM] | IC50 (PqsR) [nM] | solubility at 5 min [2] [µM]
Nc1cc(SCc2nc3cc(Oc4ccccc4)ccc3[nH]2)cc(C(F)(F)F)n1 [Compound 183, 4-(((5-phenoxy-1H-benzo[d]imidazol-2-yl)methyl)thio)-6-(trifluoromethyl)pyridin-2-amine] | ≤ 250 | ≤ 50 | > 25
FC(F)(F)c1cc(NCc2cn(-c3ccc(OC4CCC4)c(Cl)c3)nn2)ccn1 [Compound 047, N-((1-(3-chloro-4-cyclobutoxyphenyl)-1H-1,2,3-triazol-4-yl)methyl)-2-(trifluoromethyl)pyridin-4-amine] | ≤ 250 | ≤ 50 | > 25
FC(F)(F)c1cc(SCc2nc3cc(Sc4ccccc4)ccc3[nH]2)ccn1 [Compound 176, 5-(phenylthio)-2-(((2-(trifluoromethyl)pyridin-4-yl)thio)methyl)-1H-benzo[d]imidazole] | 251 to 1000 | ≤ 50 | > 10
CC(C)Oc1ccc(-n2cc(CNc3ccnc([N+](=O)[O-])c3)nn2)cc1Cl [Compound 157, N-((1-(3-chloro-4-isopropoxyphenyl)-1H-1,2,3-triazol-4-yl)methyl)-2-nitropyridin-4-amine] | ≤ 250 | ≤ 50 | > 10
Fc1ccc(Oc2ccc3[nH]c(CSc4ccnc(C(F)(F)F)c4)nc3c2)cc1 [Compound 173, 5-(4-fluorophenoxy)-2-(((2-(trifluoromethyl)pyridin-4-yl)thio)methyl)-1H-benzo[d]imidazole] | 251 to 1000 | – | > 25
FC(F)(F)c1cc(NCc2nc3cc(Oc4ccccc4)ccc3[nH]2)ccn1 [Compound 182, N-((5-phenoxy-1H-benzo[d]imidazol-2-yl)methyl)-2-(trifluoromethyl)pyridin-4-amine] | 251 to 1000 | ≤ 50 | > 50
FC(F)(F)c1cc(NCc2nnc(-c3ccc(Oc4ccccc4)cc3)[nH]2)ccn1 [Compound 095, N-((5-(4-Phenoxyphenyl)-4H-1,2,4-triazol-3-yl)methyl)-2-(trifluoromethyl)pyridin-4-amine] | 251 to 1000 | 51 to 250 | > 25
CC(C)Oc1ccc(-c2ncc(CNc3cc(Cl)nc(C(F)(F)F)c3)s2)cc1 [Compound 161, 2-Chloro-N-((2-(4-isopropoxyphenyl)thiazol-5-yl)methyl)-6-(trifluoromethyl)pyridin-4-amine] | ≤ 250 | ≤ 50 | > 25
COc1ccc(-c2ncc(CNc3ccnc(C(F)(F)F)c3)s2)cc1C [Compound 074, N-((2-(4-Methoxy-3-methylphenyl)thiazol-5-yl)methyl)-2-(trifluoromethyl)pyridin-4-amine] | 251 to 1000 | 51 to 250 | > 25
FC(F)(F)c1cc(NCc2cc(-c3ccc(Oc4ccccc4)cc3)n[nH]2)ccn1 [Compound 096, N-((3-(4-Phenoxyphenyl)-1H-pyrazol-5-yl)methyl)-2-(trifluoromethyl)pyridin-4-amine] | 251 to 1000 | 51 to 250 | > 10
COC(=O)c1ccc(Oc2ccc3[nH]c(CSc4ccnc(C(F)(F)F)c4)nc3c2)cc1 [Compound 179, methyl 4-((2-(((2-(trifluoromethyl)pyridin-4-yl)thio)methyl)-1H-benzo[d]imidazol-5-yl)oxy)benzonate] | 1000 to 5000 | 251 to 1000 | > 10
FC(F)(F)c1cc(NCc2cn(-c3ccc(OC4CCOC4)c(Cl)c3)nn2)ccn1 (centres unmarked) [Compound 153, N-((1-(3-chloro-4-((tetrahydrofuran-3-yl)oxy)phenyl)-1H-1,2,3-triazol-4-yl)methyl)-2-(trifluoromethyl)pyridin-4-amine] | 251 to 1000 | ≤ 50 | > 25
FC(F)(F)c1cc(OCc2nc3cc(Oc4ccccc4)ccc3[nH]2)ccn1 [Compound 177, 5-phenoxy-2-(((2-(trifluoromethyl)pyridin-4-yl)oxy)methyl)-1H-benzo[d]imidazole] | 1000 to 5000 | 251 to 1000 | > 25
Fc1cccc(Oc2ccc(-n3cc(CNc4ccnc(C(F)(F)F)c4)nn3)cc2)c1 [Compound 145, N-((1-(4-(3-fluorophenoxy)phenyl)-1H-1,2,3-triazol-4-yl)methyl)-2-(trifluoromethyl)pyridin-4-amine] | ≤ 250 | ≤ 50 | > 25
CC(C)Oc1ccc(-n2cc(CNc3cc(Cl)nc(C(F)(F)F)c3)nn2)cc1Cl [Compound 042, 2-Chloro-N-((1-(3-chloro-4-isopropoxyphenyl)-1H-1,2,3-triazol-4-yl)methyl)-6-(trifluoromethyl)pyridin-4-amine] | ≤ 250 | ≤ 50 | > 10
FC(F)(F)c1cc(SCc2nc3cc(Cl)c(Cl)cc3[nH]2)ccn1 [Compound 119, 5,6-Dichloro-2-(((2-(trifluoromethyl)pyridin-4-yl)thio)methyl)-1H-benzo[d]imidazole] | 1000 to 5000 | 51 to 250 | > 25
FC(F)(F)c1cc(NCc2cn(-c3ccc(-n4ccc5cccnc54)cc3)nn2)ccn1 [Compound 044, N-((1-(4-(1H-pyrrolo[2,3-b]pyridin-1-yl)phenyl)-1H-1,2,3-triazol-4-yl)methyl)-2-(trifluoromethyl)pyridin-4-amine] | – | ≤ 50 | > 10
FC(F)(F)c1cc(NCc2cnc(-c3ccc(C4CC4)cc3)nc2)ccn1 [Compound 107, N-((2-(4-Cyclopropylphenyl)pyrimidin-5-yl)methyl)-2-(trifluoromethyl)pyridin-4-amine] | 251 to 1000 | 51 to 250 | > 10
FC(F)(F)c1cc(SCc2ccc(-c3ccc(Cl)nc3)cn2)ccn1 [Compound 112, 6-Chloro-6′-(((2-(trifluoromethyl)pyridin-4-yl)thio)methyl)-3,3′-bipyridine] | 1000 to 5000 | 51 to 250 | > 25
Nc1cc(SCc2nc3cc(Cl)c(Cl)cc3[nH]2)nc(C(F)(F)F)n1 [Compound 117, 6-(((5,6-Dichloro-1H-benzo[d]imidazol-2-yl)methyl)thio)-2-(trifluoromethyl)pyrimidin-4-amine] | – | 51 to 250 | > 50
Fc1cc2nc(CSc3ccnc(C(F)(F)F)c3)[nH]c2cc1Cl [Compound 180, 6-chloro-5-fluoro-2-(((2-(trifluoromethyl)pyridin-4-yl)thio)methyl)-1H-benzo[d]imidazole] | 1000 to 5000 | 251 to 1000 | > 50
FC(F)(F)c1cc(NCc2nc(-c3ccc(Oc4ccccc4)cc3)cs2)ccn1 [Compound 079, N-((4-(4-Phenoxyphenyl)thiazol-2-yl)methyl)-2-(trifluoromethyl)pyridin-4-amine] | – | 251 to 1000 | > 25
CC(C)Oc1ccc(-c2ncc(CNc3cc(Cl)nc(C(F)(F)F)c3)cn2)cc1Cl [Compound 166] | ≤ 250 | ≤ 50 | > 25
N#Cc1cc(SCc2nc3cc(Oc4ccccc4)ccc3[nH]2)ccn1 [Compound 175, 4-(((5-phenoxy-1H-benzo[d]imidazol-2-yl)methyl)thio)picolinonitrile] | 251 to 1000 | – | > 25
FC(F)(F)c1cc(NCc2cn(-c3ccc(OC4CC4)c(Cl)c3)nn2)ccn1 [Compound 154, N-((1-(3-chloro-4-cyclopropoxyphenyl)-1H-1,2,3-triazol-4-yl)methyl)-2-(trifluoromethyl)pyridin-4-amine] | 251 to 1000 | ≤ 50 | > 10
FC(F)(F)c1cc(NCc2ncc(-c3ccc(Oc4ccccc4)cc3)s2)ccn1 [Compound 078, N-((5-(4-Phenoxyphenyl)thiazol-2-yl)methyl)-2-(trifluoromethyl)pyridin-4-amine] | ≤ 250 | ≤ 50 | > 10
FC(F)(F)c1cc(NCc2cn(-c3ccc(-n4ccc5ccncc54)cc3)nn2)ccn1 [Compound 043, N-((1-(4-(1H-pyrrolo[2,3-c]pyridin-1-yl)phenyl)-1H-1,2,3-triazol-4-yl)methyl)-2-(trifluoromethyl)pyridin-4-amine] | – | ≤ 50 | > 25
N#Cc1cc(NCc2cn(-c3ccc(Oc4ccccc4)cc3)nn2)cc(Cl)n1 [Compound 051, 6-Chloro-4-(((1-(4-phenoxyphenyl)-1H-1,2,3-triazol-4-yl)methyl)amino)picolinonitrile] | ≤ 250 | ≤ 50 | > 50
Nc1cc(SCc2nc3cc(Oc4cccnc4)ccc3[nH]2)nc(C(F)(F)F)n1 [Compound 174, 6-(((5-(pyridin-3-yloxy)-1H-benzo[d]imidazol-2-yl)methyl)thio)-2-(trifluoromethyl)pyrimidin-4-amine] | 251 to 1000 | – | ≥ 100
